The values below come from patent publication US20260201438A1 (priority 2022, published 2026).

The structures appear in SMILES notation. In brackets after ≈: the same amount, converted by molar mass.

Test [1] deals with E. coli ATCC 25922. Description: reference broth microdilution (rBMD). The test is classed as cell-based. The conditions noted are these: Escherichia coli, ATCC25922, read-out: MIC rBMD, E. coli ATCC 25922, isolates from urine cultures; geometric mean, n = 3.
Test [2] deals with S. aureus ATCC 29213. The conditions noted are these: CLSI M100-Ed35; cited from earlier work.
Test [3] concerns E. coli ATCC 25922. The note with it: CLSI M100-Ed35; cited from earlier work.

As a reminder, the MIC is the lowest concentration found to suppress growth. For `Cc1nnc(SCC2=C(C(=O)O)N3C(=O)[C@@H](NC(=O)Cn4cnnn4)[C@H]3SC2)s1` [Cefazolin], the MIC in test [1] was 2 µg/mL (≈ 4.4 µM).
Take `CO[C@@]1(NC(=O)Cc2cccs2)C(=O)N2C(C(=O)O)=C(COC(N)=O)CS[C@@H]21` [Cefoxitin]: in test [2], the “MIC CLSI QC Range” value is 1.0 to 4.0 µg/mL.
With `CO/N=C(\C(=O)N[C@@H]1C(=O)N2C(C(=O)O)=C(CSc3nc(=O)c(=O)[nH]n3C)CS[C@H]12)c1csc(N)n1` [Ceftriaxone], the figures for the “MIC CLSI QC Range” value in test [3] and in test [2] were 0.03 to 0.12 µg/mL and 1.0 to 8.0 µg/mL, respectively.
`CO/N=C(\C(=O)N[C@@H]1C(=O)N2C(C(=O)O)=C(COC(N)=O)CS[C@H]12)c1ccco1` [Cefuroxime]: in test [3], the “MIC CLSI QC Range” value was 2.0 to 8.0 µg/mL.
As for `C[C@@H](O)[C@H]1C(=O)N2C(C(=O)O)=C(S[C@@H]3CN[C@H](C(=O)N(C)C)C3)[C@H](C)[C@H]12` [Meropenem], the “MIC CLSI QC Range” value is 0.008 to 0.06 µg/mL in test [3] and 0.03 to 0.12 µg/mL in test [2].
